The text below walks through data of patent US11033539B2, “Compounds of formulas (VII), (VIII), (IX), (XI), (XII), (XIII), and (XIV) as muscarinic receptor 4(M4) antagonists for treating neurological diseases” (Neurocrine Biosciences, Inc., priority 2015, dated 2021).

One assay addresses human M1 receptor (Homo sapiens (Human), UniProt P11229). Description: Radioligand (tritiated N-methylscopolamine) binding assay, M1. The settings on record: CHO cell membranes expressing human M1; 1.5 nM tritiated N-methylscopolamine; 90 min, 37° C.; read-out: Ki against M1 receptor (Table 21, M1). As for the experimental part: (§1) Binding affinity (Ki) of compounds was measured by inhibition of radioligand binding to membranes from CHO cells expressing human M1, M2, M3, M4 and M5 receptors. Membranes were prepared by nitrogen cavitation and differential centrifugation as previously described (Hoare et al., Mol. Pharmacol. 2003 March; 63(3): 751-65). The radioligand employed was tritiated N-methylscopolamine, used at a concentration of 1.5 nM. A dose-response of twelve concentrations of compound was used, ranging from 10 μM to […]. The assay buffer was 50 mM HEPES, 100 mM NaCl, 5 mM MgCl2, 1 mM ethylenediaminetetraacetic acid, pH-adjusted to pH 7.4. Membranes, radioligand and compound were incubated together for 90 minutes at 37° C., in a total volume of 150 μl in a 96-well plate. Receptor-bound radioligand was then collected by harvesting the assay over glass fiber filters pretreated with polyethylenimine to trap the cell membranes, using rapid vacuum filtration. Harvesting and radioactivity counting was conducted as previously described (see, e.g., Hoare et al., Mol. Pharmacol. 2003 63(3):751-65); Erratum at Mol. Pharmacol. 2005 July; 68(1): 260).

Another assay deals with human M5 receptor (Homo sapiens (Human), UniProt P08912). Description: Radioligand (tritiated N-methylscopolamine) binding assay, M5. The settings on record: CHO cell membranes expressing human M5; 1.5 nM tritiated N-methylscopolamine; 90 min, 37° C.; read-out: Ki against M5 receptor (Table 21, M5). As to the method: as §1
Another assay has as its target human M3 receptor (Homo sapiens (Human), UniProt P20309). Description: Radioligand (tritiated N-methylscopolamine) binding assay, M3. The settings on record: CHO cell membranes expressing human M3; 1.5 nM tritiated N-methylscopolamine; 90 min, 37° C.; read-out: Ki against M3 receptor (Table 21, M3). As for the experimental part:
as §1

In another assay the target is human M4 receptor (Homo sapiens (Human), UniProt P08173). Description: Radioligand (tritiated N-methylscopolamine) binding assay, M4. The settings on record: Ki against the M4 receptor; membranes from CHO cells expressing human M4; tritiated N-methylscopolamine 1.5 nM; read-out: Ki. The method, boiled down:
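Ki from displacement of 1.5 nM [3H]N-methylscopolamine on membranes of CHO cells expressing each human receptor. Twelve compound concentrations (10 μM to […]), 90 min at 37° C in 50 mM HEPES, 100 mM NaCl, 5 mM MgCl2, 1 mM EDTA, pH 7.4. Bound ligand was captured by PEI-treated glass-fiber filtration and counted.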

In the next assay the target is human M2 receptor (Homo sapiens (Human), UniProt P08172). Description: Radioligand (tritiated N-methylscopolamine) binding assay, M2. The settings on record: CHO cell membranes expressing human M2; 1.5 nM tritiated N-methylscopolamine; 90 min, 37° C.; read-out: Ki against M2 receptor (Table 21, M2). As to the method: as §1
human M2 receptor, sequence (P08172 whole entry): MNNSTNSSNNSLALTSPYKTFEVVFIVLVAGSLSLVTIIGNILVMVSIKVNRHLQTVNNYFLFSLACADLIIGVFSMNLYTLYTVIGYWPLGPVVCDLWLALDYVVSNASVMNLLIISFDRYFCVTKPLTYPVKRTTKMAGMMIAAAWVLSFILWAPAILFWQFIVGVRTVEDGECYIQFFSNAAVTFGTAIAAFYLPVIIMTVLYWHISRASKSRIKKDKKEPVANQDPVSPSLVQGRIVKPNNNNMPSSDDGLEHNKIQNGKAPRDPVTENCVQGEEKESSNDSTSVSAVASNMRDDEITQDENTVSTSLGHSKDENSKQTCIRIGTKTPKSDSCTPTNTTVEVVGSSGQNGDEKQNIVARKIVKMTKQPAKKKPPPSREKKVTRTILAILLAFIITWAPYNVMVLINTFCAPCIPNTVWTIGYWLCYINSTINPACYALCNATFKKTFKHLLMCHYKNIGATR

human M5 receptor, sequence (P08912 whole entry): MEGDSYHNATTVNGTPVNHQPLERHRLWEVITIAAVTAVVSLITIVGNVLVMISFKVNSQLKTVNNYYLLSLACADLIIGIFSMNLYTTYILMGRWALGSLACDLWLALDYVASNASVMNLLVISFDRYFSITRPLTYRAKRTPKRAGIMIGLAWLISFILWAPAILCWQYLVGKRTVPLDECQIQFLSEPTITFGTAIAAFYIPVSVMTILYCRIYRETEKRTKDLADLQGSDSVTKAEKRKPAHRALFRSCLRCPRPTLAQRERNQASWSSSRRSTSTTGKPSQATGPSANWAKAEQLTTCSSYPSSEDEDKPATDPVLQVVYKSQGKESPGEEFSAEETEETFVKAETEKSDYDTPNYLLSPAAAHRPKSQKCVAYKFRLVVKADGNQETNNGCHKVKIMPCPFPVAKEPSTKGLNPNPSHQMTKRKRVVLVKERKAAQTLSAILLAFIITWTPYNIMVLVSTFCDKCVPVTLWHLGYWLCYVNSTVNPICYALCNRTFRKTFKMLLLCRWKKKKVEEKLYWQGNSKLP
human M4 receptor, sequence (P08173 whole entry): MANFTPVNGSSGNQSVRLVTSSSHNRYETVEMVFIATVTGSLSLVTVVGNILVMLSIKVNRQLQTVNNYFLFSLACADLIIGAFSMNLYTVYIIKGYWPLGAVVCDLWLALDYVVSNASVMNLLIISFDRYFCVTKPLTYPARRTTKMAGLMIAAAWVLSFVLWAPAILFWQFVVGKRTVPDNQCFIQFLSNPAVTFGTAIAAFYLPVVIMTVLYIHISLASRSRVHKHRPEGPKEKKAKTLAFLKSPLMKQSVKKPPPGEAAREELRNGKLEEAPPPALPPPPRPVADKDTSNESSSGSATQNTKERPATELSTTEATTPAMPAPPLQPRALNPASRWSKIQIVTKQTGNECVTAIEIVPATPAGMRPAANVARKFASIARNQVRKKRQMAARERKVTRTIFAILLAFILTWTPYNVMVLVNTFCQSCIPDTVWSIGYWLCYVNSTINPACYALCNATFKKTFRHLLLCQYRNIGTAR
human M1 receptor, sequence (P11229 whole entry): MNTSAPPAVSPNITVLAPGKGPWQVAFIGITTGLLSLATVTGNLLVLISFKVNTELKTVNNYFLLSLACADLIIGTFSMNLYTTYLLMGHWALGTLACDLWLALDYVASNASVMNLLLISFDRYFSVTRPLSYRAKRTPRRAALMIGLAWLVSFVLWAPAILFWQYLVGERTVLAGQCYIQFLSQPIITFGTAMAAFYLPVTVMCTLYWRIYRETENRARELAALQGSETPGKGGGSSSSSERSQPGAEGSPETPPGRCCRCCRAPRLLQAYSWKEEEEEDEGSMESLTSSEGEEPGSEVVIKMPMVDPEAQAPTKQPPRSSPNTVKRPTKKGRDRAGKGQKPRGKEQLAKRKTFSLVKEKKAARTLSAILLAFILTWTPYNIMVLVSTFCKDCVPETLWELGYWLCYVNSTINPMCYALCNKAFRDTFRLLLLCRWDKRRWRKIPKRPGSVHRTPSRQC
human M3 receptor, sequence (P20309 whole entry): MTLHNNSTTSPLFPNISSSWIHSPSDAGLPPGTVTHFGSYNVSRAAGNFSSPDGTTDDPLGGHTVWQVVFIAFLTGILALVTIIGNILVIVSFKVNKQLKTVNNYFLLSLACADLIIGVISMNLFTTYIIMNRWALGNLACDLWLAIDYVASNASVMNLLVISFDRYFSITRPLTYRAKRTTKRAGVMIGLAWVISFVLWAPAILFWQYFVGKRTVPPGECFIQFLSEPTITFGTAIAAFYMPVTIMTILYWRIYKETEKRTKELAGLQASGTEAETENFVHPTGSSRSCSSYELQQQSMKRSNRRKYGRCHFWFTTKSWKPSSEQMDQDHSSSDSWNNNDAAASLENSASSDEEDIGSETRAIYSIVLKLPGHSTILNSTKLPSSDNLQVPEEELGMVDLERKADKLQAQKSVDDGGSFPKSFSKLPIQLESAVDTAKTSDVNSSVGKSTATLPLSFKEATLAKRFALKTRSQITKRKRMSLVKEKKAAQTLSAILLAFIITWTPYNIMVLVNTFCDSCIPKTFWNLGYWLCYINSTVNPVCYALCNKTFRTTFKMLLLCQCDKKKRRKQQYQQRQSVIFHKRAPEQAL

In the case of `C[C@@H]1CN(c2ccc(C(F)(F)F)cn2)CCN1C(=O)NCCC1CCN(Cc2ccccc2)CC1` [3-14, (2R)-N-[2-(1-benzylpiperidin-4-yl)ethyl]-2-methyl-4-[5-(trifluoromethyl)pyridin-2-yl]piperazine-1-carboxamide], the Ki on human M1 receptor was 100 to 1000 nM; at human M5 receptor, above 1000 nM; at human M3 receptor, above 1000 nM; on human M4 receptor, below 10 nM; on human M2 receptor, 10 to 100 nM.
With `C[C@@H]1CN(c2cc(F)c(F)c(F)c2)CCN1C(=O)NC[C@H](O)C1CCN(Cc2ccccc2)CC1` [3-16, (2R)-N-[(2R)-2-(1-benzylpiperidin-4-yl)-2-hydroxyethyl]-2-methyl-4-(3,4,5-trifluorophenyl)piperazine-1-carboxamide], the Ki was above 1000 nM at human M1 receptor; above 1000 nM at human M5 receptor; above 1000 nM on human M3 receptor; below 10 nM at human M4 receptor; above 1000 nM on human M2 receptor.
As for `C[C@@H]1CN(c2cc(F)c(F)c(F)c2)CCN1C(=O)NCCC1CCN(Cc2ccccc2)CC1CO` (stereo partly drawn) [3-17, (2R)-N-{2-[1-benzyl-3-(hydroxymethyl)piperidin-4-yl]ethyl}-2-methyl-4-(3,4,5-trifluorophenyl)piperazine-1-carboxamide], the Ki is above 1000 nM at human M1 receptor; above 1000 nM at human M5 receptor; above 1000 nM at human M3 receptor; below 10 nM at human M4 receptor; 100 to 1000 nM at human M2 receptor.
For `C[C@@H]1CN(c2ccc(F)c(C#N)c2)CCN1C(=O)NC[C@@H](O)C1CCN(Cc2ccccc2)CC1` [3-18, (2R)-N-[(2S)-2-(1-benzylpiperidin-4-yl)-2-hydroxyethyl]-4-(3-cyano-4-fluorophenyl)-2-methylpiperazine-1-carboxamide], the inhibition constant Ki is above 1000 nM at human M1 receptor; above 1000 nM at human M5 receptor; above 1000 nM on human M3 receptor; below 10 nM on human M4 receptor; above 1000 nM at human M2 receptor.
As for `O=C(NCCC1CCN(Cc2ccccc2)CC1CO)N1CCN(c2cc(F)c(F)c(F)c2)CC1` (stereo not drawn) [3-19, N-{2-[1-benzyl-3-(hydroxymethyl)piperidin-4-yl]ethyl}-4-(3,4,5-trifluorophenyl)piperazine-1-carboxamide], the Ki on human M1 receptor was above 1000 nM; on human M5 receptor it was above 1000 nM; on human M3 receptor, above 1000 nM; on human M4 receptor it was below 10 nM; at human M2 receptor, 100 to 1000 nM.
Take `C[C@@H]1CN(c2ccc(OC(F)(F)F)c(C#N)c2)CCN1C(=O)NC[C@@H](O)C1CCN(Cc2ccccc2)CC1` [3-21, (2R)-N-[(2S)-2-(1-benzylpiperidin-4-yl)-2-hydroxyethyl]-4-[3-cyano-4-(trifluoromethoxy)phenyl]-2-methylpiperazine-1-carboxamide]: the Ki is above 1000 nM on human M1 receptor; above 1000 nM on human M5 receptor; above 1000 nM on human M3 receptor; below 10 nM at human M4 receptor; 100 to 1000 nM on human M2 receptor.
Turning to `C[C@@H]1CN(c2cc(F)c(F)c(F)c2)CCN1C(=O)NC[C@@H](O)C1CCN(Cc2ccccc2)CC1` [3-22, (2R)-N-[(2S)-2-(1-benzylpiperidin-4-yl)-2-hydroxyethyl]-2-methyl-4-(3,4,5-trifluorophenyl)piperazine-1-carboxamide], the Ki on human M1 receptor is above 1000 nM; on human M5 receptor, above 1000 nM; on human M3 receptor it was above 1000 nM; on human M4 receptor, below 10 nM; on human M2 receptor, 100 to 1000 nM.
For `C[C@@H]1CN(c2ccc(C#N)cn2)C[C@H](C)N1C(=O)NCCC1CCN(Cc2ccccc2)CC1` [3-23, (2S,6R)-N-[2-(1-benzylpiperidin-4-yl)ethyl]-4-(5-cyanopyridin-2-yl)-2,6-dimethylpiperazine-1-carboxamide], the Ki on human M1 receptor is above 1000 nM; on human M5 receptor it was above 1000 nM; on human M3 receptor, above 1000 nM; on human M4 receptor it was below 10 nM; on human M2 receptor, 100 to 1000 nM.
On to `C[C@@H]1CN(c2ccc(F)c(C#N)c2)CCN1C(=O)NCCC1CCN(Cc2ccccc2)CC1` [4-1, (2R)-N-[2-(1-benzylpiperidin-4-yl)ethyl]-4-(3-cyano-4-fluorophenyl)-2-methylpiperazine-1-carboxamide], for which the inhibition constant Ki is 100 to 1000 nM at human M1 receptor; above 1000 nM on human M5 receptor; above 1000 nM at human M3 receptor; below 10 nM on human M4 receptor; 100 to 1000 nM at human M2 receptor.
For `C[C@@H]1CN(c2ccc(C(F)(F)F)cc2)CCN1C(=O)NCCC1CCN(Cc2ccccc2)CC1` [4-5, (2R)-N-[2-(1-benzylpiperidin-4-yl)ethyl]-2-methyl-4-[4-(trifluoromethyl)phenyl]piperazine-1-carboxamide], the Ki on human M1 receptor was 100 to 1000 nM; at human M5 receptor, above 1000 nM; at human M3 receptor, above 1000 nM; at human M4 receptor, below 10 nM; on human M2 receptor, 10 to 100 nM.
As for `C[C@H]1CN(c2ccc(OC(F)(F)F)cc2)CCN1C(=O)NCCC1CCN(Cc2ccccc2)CC1` [4-10, (2S)-N-[2-(1-benzylpiperidin-4-yl)ethyl]-2-methyl-4-[4-(trifluoromethoxy)phenyl]piperazine-1-carboxamide], the inhibition constant Ki was 100 to 1000 nM on human M1 receptor; 100 to 1000 nM at human M5 receptor; 100 to 1000 nM on human M3 receptor; below 10 nM on human M4 receptor; 10 to 100 nM on human M2 receptor.
Consider `C[C@@H]1CN(c2nc(Cl)cc(C#N)n2)C[C@H](C)N1C(=O)NCCC1CCN(Cc2ccccc2)CC1` [4-11, (2S,6R)-N-[2-(1-benzylpiperidin-4-yl)ethyl]-4-(4-chloro-6-cyanopyrimidin-2-yl)-2,6-dimethylpiperazine-1-carboxamide], for which the Ki at human M1 receptor is 100 to 1000 nM; at human M5 receptor it was above 1000 nM; on human M3 receptor it was above 1000 nM; at human M4 receptor it was below 10 nM; on human M2 receptor it was 10 to 100 nM.
Regarding `C[C@@H]1CN(c2cc(C(F)(F)F)ccn2)CCN1C(=O)NCCC1CCN(Cc2ccccc2)CC1` [4-12, (2R)-N-[2-(1-benzylpiperidin-4-yl)ethyl]-2-methyl-4-[4-(trifluoromethyl)pyridin-2-yl]piperazine-1-carboxamide], the Ki on human M1 receptor is 100 to 1000 nM; at human M5 receptor it was above 1000 nM; at human M3 receptor, 100 to 1000 nM; on human M4 receptor, below 10 nM; on human M2 receptor, 10 to 100 nM.
For the compound `Cc1ccc(N2CCN(C(=O)NCCC3CCN(Cc4ccccc4)CC3)[C@H](C)C2)cc1F` [4-13, (2R)-N-[2-(1-benzylpiperidin-4-yl)ethyl]-4-(3-fluoro-4-methylphenyl)-2-methylpiperazine-1-carboxamide], the Ki at human M1 receptor was above 1000 nM; on human M5 receptor, above 1000 nM; on human M3 receptor, above 1000 nM; on human M4 receptor, below 10 nM; on human M2 receptor it was 100 to 1000 nM.
Regarding `C[C@@H]1CN(c2ccc(F)c(F)c2)CCN1C(=O)NCCC1CCN(Cc2ccccc2)CC1` [4-15, (2R)-N-[2-(1-benzylpiperidin-4-yl)ethyl]-4-(3,4-difluorophenyl)-2-methylpiperazine-1-carboxamide], the inhibition constant Ki is 100 to 1000 nM on human M1 receptor; above 1000 nM on human M5 receptor; above 1000 nM on human M3 receptor; below 10 nM on human M4 receptor; 100 to 1000 nM on human M2 receptor.
In the case of `C[C@@H]1CN(C(=O)NCCC2CCN(Cc3ccccc3)CC2)CCN1c1cc(F)c(F)c(F)c1` [4-17, (3R)-N-[2-(1-benzylpiperidin-4-yl)ethyl]-3-methyl-4-(3,4,5-trifluorophenyl)piperazine-1-carboxamide], the Ki on human M1 receptor was above 1000 nM; at human M5 receptor it was above 1000 nM; at human M3 receptor, above 1000 nM; on human M4 receptor, below 10 nM; on human M2 receptor it was 100 to 1000 nM.
Regarding `C[C@@H]1CN(C(=O)NCCC2CCN(Cc3ccccc3)CC2)CCN1c1ccc(OC(F)(F)F)cc1` [4-18, (3R)-N-[2-(1-benzylpiperidin-4-yl)ethyl]-3-methyl-4-[4-(trifluoromethoxy)phenyl]piperazine-1-carboxamide], the Ki is above 1000 nM on human M1 receptor; above 1000 nM on human M5 receptor; above 1000 nM on human M3 receptor; below 10 nM at human M4 receptor; 100 to 1000 nM at human M2 receptor.
For `Cc1nc(N2CCN(C(=O)NCCC3CCN(Cc4ccccc4)CC3)[C@H](C)C2)ccc1F` [4-19, (2R)-N-[2-(1-benzylpiperidin-4-yl)ethyl]-4-(5-fluoro-6-methylpyridin-2-yl)-2-methylpiperazine-1-carboxamide], the Ki was 100 to 1000 nM at human M1 receptor; above 1000 nM at human M5 receptor; above 1000 nM at human M3 receptor; below 10 nM on human M4 receptor; 100 to 1000 nM at human M2 receptor.
